Data from patent US20260001928A1 (CORTERIA PHARMACEUTICALS, priority 2022, published 2026).
*1 amine or outer side, *2 acyl side, *3 side chain or, on linkers, in order; H or OH if unused. Where a SMILES comes first, the peptide text is derived from it. Where no end group is shown, it is not given here. Side-chain parts run from the residue outwards. [ ]: non-standard residue; d: D form. The star is where a group is joined. C20 diacid = O=C(O)CCCCCCCCCCCCCCCCCCC(=O)*; C18 diacid = O=C(O)CCCCCCCCCCCCCCCCC(=O)*; C16 diacid = O=C(O)CCCCCCCCCCCCCCC(=O)*; γGlu = O=C(O)[C@H](CCC(=O)[*:2])N[*:1]; NMeI = CC[C@H](C)[C@H](NC)C(=O)O; AEEA = NCCOCCOCC(=O)O; Aib = CC(C)(N)C(=O)O

T1: CRF1R (corticotropin-releasing factor receptor 1), on the CRF1R-overexpression CHO-K1 cell line clone 2 (UniProt P34998 24-415, limits assumed)
T1 sequence (looked up): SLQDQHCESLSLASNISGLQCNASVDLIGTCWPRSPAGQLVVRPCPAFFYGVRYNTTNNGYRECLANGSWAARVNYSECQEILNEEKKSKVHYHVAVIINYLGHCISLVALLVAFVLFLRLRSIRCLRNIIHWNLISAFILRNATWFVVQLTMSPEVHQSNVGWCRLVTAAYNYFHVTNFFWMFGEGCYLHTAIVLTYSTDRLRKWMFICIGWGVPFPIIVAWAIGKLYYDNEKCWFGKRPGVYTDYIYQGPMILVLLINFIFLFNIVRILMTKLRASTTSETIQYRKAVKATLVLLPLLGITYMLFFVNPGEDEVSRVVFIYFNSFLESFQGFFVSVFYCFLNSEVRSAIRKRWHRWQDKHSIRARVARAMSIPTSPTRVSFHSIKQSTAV

B1: peptide of SEQ ID NO: 239 (peptide)
peptide: [NMeI]VLSLD[dV]PIKLK([AEEA-AEEA-γGlu-C20 diacid])KILLEQEKQK[Aib]QREQAETN[Aib]QILAQV-NH2
modifications: N-terminus assumed
SMILES: CC[C@H](C)[C@H](NC)C(=O)N[C@H](C(=O)N[C@@H](CC(C)C)C(=O)N[C@@H](CO)C(=O)N[C@@H](CC(C)C)C(=O)N[C@@H](CC(=O)O)C(=O)N[C@@H](C(=O)N1CCC[C@H]1C(=O)N[C@H](C(=O)N[C@@H](CCCCN)C(=O)N[C@@H](CC(C)C)C(=O)N[C@@H](CCCCNC(=O)COCCOCCNC(=O)COCCOCCNC(=O)CC[C@H](NC(=O)CCCCCCCCCCCCCCCCCCC(=O)O)C(=O)O)C(=O)N[C@@H](CCCCN)C(=O)N[C@H](C(=O)N[C@@H](CC(C)C)C(=O)N[C@@H](CC(C)C)C(=O)N[C@@H](CCC(=O)O)C(=O)N[C@@H](CCC(N)=O)C(=O)N[C@@H](CCC(=O)O)C(=O)N[C@@H](CCCCN)C(=O)N[C@@H](CCC(N)=O)C(=O)N[C@@H](CCCCN)C(=O)NC(C)(C)C(=O)N[C@@H](CCC(N)=O)C(=O)N[C@@H](CCCNC(=N)N)C(=O)N[C@@H](CCC(=O)O)C(=O)N[C@@H](CCC(N)=O)C(=O)N[C@@H](C)C(=O)N[C@@H](CCC(=O)O)C(=O)N[C@H](C(=O)N[C@@H](CC(N)=O)C(=O)NC(C)(C)C(=O)N[C@@H](CCC(N)=O)C(=O)N[C@H](C(=O)N[C@@H](CC(C)C)C(=O)N[C@@H](C)C(=O)N[C@@H](CCC(N)=O)C(=O)N[C@H](C(N)=O)C(C)C)[C@@H](C)CC)[C@@H](C)O)[C@@H](C)CC)[C@@H](C)CC)C(C)C)C(C)C

Experiments:
human LAD2 cells = assay type: cell-based
Description: LAD2 cells (20000 cells/well, 96-well plates and 10,000 cells/well in 384-well plates) were incubated with compounds for 30 min. The R-hexosaminidase released into the supernatants and in cell lysates was quantified using the fluorogenic substrate 4-methylumbelliferyl-N-acetyl-b-D-glucosaminide.
On the day of the assay, the lyophilized peptides were dissolved in DMSO and/or PBS 1× pH 7.4, to obtain stock solutions. The stock solutions were used to prepare working serial dilutions to have final concentrations in assay ranging from 50, 100 or 300 to 0.1 or 0.001 μM. Each peptide was tested in biological duplicates. When compounds were dissolved in DMSO, the final solvent concentration in assay was 0.5% (v/v).
The percentage of degranulation, expressed as % of R-hexosaminidase release, was calculated by dividing the fluorescence signal of the supernatant by the sum of the signals from the supernatant and cell pellet (lysed with Triton X-100, final 1%) and multiplying by 100.
Dose-response curves were generated by plotting the % of R-hexosaminidase release versus total release of cells treated with triton (y-axis) against the concentrations of peptides tested (x-axis). The Mast Cell Degranulation (MCD) EC50 values and standard errors were calculated using XLfit 5.5.0.5 based on the following equation:
4 Parameter Sigmoidal Model: f=(A+((B−A)/(1+((C/x)^D))))
where A=Emin, B=Emax, C=EC50 and D=slope

[1] = molecular target: T1, CRF1R (corticotropin-releasing factor …); assay: cell-based or functional assay

| Molecule | EC50 (human LAD2 cells) | EC50 [nM] (cAMP, CRF1R-overexpression CHO-K1 cells) [1] | Emax (% I) (cAMP, 100% = Sauvagine at 100 nM) [1] |
| --- | --- | --- | --- |
| CC[C@H](C)[C@H](NC(C)=O)C(=O)N[C@H](C(=O)N[C@@H](CC(C)C)C(=O)N[C@@H](CO)C(=O)N[C@@H](CC(C)C)C(=O)N[C@@H](CC(=O)O)C(=O)N[C@@H](C(=O)N1CCC[C@H]1C(=O)N[C@H](C(=O)N[C@@H](CCCCN)C(=O)N[C@@H](CC(C)C)C(=O)N[C@@H](CCCCNC(=O)CC[C@H](NC(=O)CCCCCCCCCCCCCCC(=O)O)C(=O)O)C(=O)N[C@@H](CCCCN)C(=O)N[C@H](C(=O)N[C@@H](CC(C)C)C(=O)N[C@@H](CC(C)C)C(=O)N[C@@H](CCC(=O)O)C(=O)N[C@@H](CCC(N)=O)C(=O)N[C@@H](CCC(=O)O)C(=O)N[C@@H](CCCCN)C(=O)N[C@@H](CCC(N)=O)C(=O)N[C@@H](CCCCN)C(=O)N[C@@H](C)C(=O)N[C@@H](CCC(N)=O)C(=O)N[C@@H](CCCNC(=N)N)C(=O)N[C@@H](CCC(=O)O)C(=O)N[C@@H](CCC(N)=O)C(=O)N[C@@H](C)C(=O)N[C@@H](CCC(=O)O)C(=O)N[C@H](C(=O)N[C@@H](CC(N)=O)C(=O)NC(C)(C)C(=O)N[C@@H](CCC(N)=O)C(=O)N[C@H](C(=O)N[C@@H](CC(C)C)C(=O)N[C@@H](C)C(=O)N[C@@H](CCC(N)=O)C(=O)N[C@H](C(N)=O)C(C)C)[C@@H](C)CC)[C@@H](C)O)[C@@H](C)CC)[C@@H](C)CC)C(C)C)C(C)C [Cmpd 161] (Ac-IVLSLD[dV]PIKLK([γGlu-C16 diacid])KILLEQEKQKAQREQAETN[Aib]QILAQV-NH2) | > 50 µM |  |  |
| CC[C@H](C)[C@H](NC(C)=O)C(=O)N[C@H](C(=O)N[C@@H](CC(C)C)C(=O)N[C@@H](CO)C(=O)N[C@@H](CC(C)C)C(=O)N[C@@H](CC(=O)O)C(=O)N[C@@H](C(=O)N1CCC[C@H]1C(=O)N[C@H](C(=O)N[C@@H](CCCCN)C(=O)N[C@@H](CC(C)C)C(=O)N[C@@H](CCCCNC(=O)CC[C@H](NC(=O)CCCCCCCCCCCCCCC(=O)O)C(=O)O)C(=O)N[C@@H](CCCCN)C(=O)N[C@H](C(=O)N[C@@H](CC(C)C)C(=O)N[C@@H](CC(C)C)C(=O)N[C@@H](CCC(=O)O)C(=O)N[C@@H](CCC(N)=O)C(=O)N[C@@H](CCC(=O)O)C(=O)N[C@@H](CCCCN)C(=O)N[C@@H](CCC(N)=O)C(=O)N[C@@H](CCCCN)C(=O)N[C@@H](CCCCN)C(=O)N[C@@H](CCC(N)=O)C(=O)N[C@@H](C)C(=O)N[C@@H](CCC(=O)O)C(=O)N[C@@H](CCC(N)=O)C(=O)N[C@@H](C)C(=O)N[C@@H](CCC(=O)O)C(=O)N[C@H](C(=O)N[C@@H](CC(N)=O)C(=O)NC(C)(C)C(=O)N[C@@H](CCC(N)=O)C(=O)N[C@H](C(=O)N[C@@H](CC(C)C)C(=O)N[C@@H](C)C(=O)N[C@@H](CCC(N)=O)C(=O)N[C@H](C(N)=O)C(C)C)[C@@H](C)CC)[C@@H](C)O)[C@@H](C)CC)[C@@H](C)CC)C(C)C)C(C)C [Cmpd 167] (Ac-IVLSLD[dV]PIKLK([γGlu-C16 diacid])KILLEQEKQKKQAEQAETN[Aib]QILAQV-NH2) | > 50 µM |  |  |
| CC[C@H](C)[C@H](NC(C)=O)C(=O)N[C@H](C(=O)N[C@@H](CC(C)C)C(=O)N[C@@H](CO)C(=O)N[C@@H](CC(C)C)C(=O)N[C@@H](CC(=O)O)C(=O)N[C@@H](C(=O)N1CCC[C@H]1C(=O)N[C@H](C(=O)N[C@@H](CCCCN)C(=O)N[C@@H](CC(C)C)C(=O)N[C@@H](CCCCNC(=O)CC[C@H](NC(=O)CCCCCCCCCCCCCCCCC(=O)O)C(=O)O)C(=O)N[C@@H](CCCCN)C(=O)N[C@H](C(=O)N[C@@H](CC(C)C)C(=O)N[C@@H](CC(C)C)C(=O)N[C@@H](CCC(=O)O)C(=O)N[C@@H](CCC(N)=O)C(=O)N[C@@H](CCC(=O)O)C(=O)N[C@@H](CCCCN)C(=O)N[C@@H](CCC(N)=O)C(=O)N[C@@H](CCCCN)C(=O)N[C@@H](CCCCN)C(=O)N[C@@H](CCC(N)=O)C(=O)N[C@@H](CCCNC(=N)N)C(=O)N[C@@H](CCC(=O)O)C(=O)N[C@@H](CCC(N)=O)C(=O)N[C@@H](C)C(=O)N[C@@H](CCC(=O)O)C(=O)N[C@H](C(=O)N[C@@H](CC(N)=O)C(=O)NC(C)(C)C(=O)N[C@@H](CCC(N)=O)C(=O)N[C@H](C(=O)N[C@@H](CC(C)C)C(=O)N[C@@H](C)C(=O)N[C@@H](CCC(N)=O)C(=O)N[C@H](C(N)=O)C(C)C)[C@@H](C)CC)[C@@H](C)O)[C@@H](C)CC)[C@@H](C)CC)C(C)C)C(C)C [Cmpd 125] (Ac-IVLSLD[dV]PIKLK([γGlu-C18 diacid])KILLEQEKQKKQREQAETN[Aib]QILAQV-NH2) | > 100 µM |  |  |
| NC(N)=NCCC[C@@H](N)C(=O)N[C@@H](CCCN=C(N)N)C(=O)N1CCC[C@H]1C(=O)N1C[C@H](O)C[C@H]1C(=O)NCC(=O)N[C@@H](Cc1cccs1)C(=O)N[C@@H](CO)C(=O)N1Cc2ccccc2C[C@@H]1C(=O)N1[C@H](C(=O)N[C@@H](CCCN=C(N)N)C(=O)O)C[C@@H]2CCCC[C@@H]21 [Icatibant, reference compound] | 16.4 µM |  |  |
| B1 |  | > 250 nM | 0 % I |
